Laboratory results: publication PMC9295122, “Sialic Acid Derivatives Inhibit SiaT Transporters and Delay Bacterial Growth” (ACS Chemical Biology, 2022)
Where two headings read alike, the source gives them in different places.

Assays:
P. mirabilis HI4320 = assay: Growth in carbon-limited MM with inhibitor only, P. mirabilis; format: cell-based, Proteus mirabilis; details: MM with sodium citrate, compound 0.5 mM
Description: We first addressed whether these bacteria were able to catabolize the inhibitors and potentially use them as a carbon source for growth. Each strain was grown in carbon-limited defined minimal media (MM), without any carbon source other than sodium citrate for P. mirabilis and casamino acids for S. aureus, and supplemented with 3e and 3f. […] With these promising results, bacterial growth assays were performed in MM supplemented with Neu5Ac at a concentration of 3.2 mM and with 0.5 mM of compounds 3e and 3f (Figure 6a,b). The lag phase duration was determined as the time for the initial population density to increase twofold (see the horizontal dashed lines in Figure 6a,b). The effects were significant in the case of S. aureus, where a delayed growth of 4.4 and 9.4 h (P < 0.001) for compounds 3e and 3f, respectively, was observed. In the case of P. mirabilis, compound 3e indicated a delay in growth (3 h, P = 0.06), while no effect was recorded for compound 3f.
Figure S4. S. aureus COL (A) and P. mirabilis HI4320 (B) grown in defined carbon-limited minimal media (dotted line), with the addition of compound 3e (0.5 mM, solid line) or compound 3f (0.5 mM, dashed line). Average values of two biological replicates (n=2) each including two technical replicates are presented.
(1 picture or pasted object on this page, not shown here)

[1] = Plasma-protein binding by RED, mouse; format: in vitro ADME; details: pH 7.2, read-out: Plasma-protein binding by RED (% unbound compound, average n=2)
Description: The assay was run in a deep well plate containing RED inserts with semipermeable dialysis membranes. The reaction was started by adding the compounds to a blank plasma in a 5 μM concentration. Opposite to the blank plasma was a compartment containing isotonic sodium–phosphate buffer (pH 7.2) separated from the plasma by the membrane. The plate was equilibrated in a water bath at 37 °C for 4 h. Samples from both the plasma and the buffer side were matrix compensated before protein precipitation. The samples were centrifuged, and the supernatants were diluted and analyzed by LC–MS/MS to determine the % unbound compound. Two incubations per compound per species.

[2] = Metabolic stability in mouse liver microsomes; format: in vitro ADME; details: for Metabolic stability in mouse microsomes, Exp. 1 / Metabolic stability in mouse microsomes, Exp. 2: intrinsic clearance, 1 µM compound; for microsomal CLint at 1 µM: mouse liver microsomes, read-out: intrinsic clearance Clint
Description: The assay was run in a 96-deep well format and solutions were prepared containing microsomes in phosphate buffer. The microsomes employed were from humans, rats, and mice. The reaction was initiated by addition of NADPH after preincubation at 37 °C with test compounds. The reaction was stopped by the addition of acetonitrile (ACN) at six time points (0, 5, 10, 15, 25, and 45 min), the samples were centrifuged, and the supernatant was diluted to determine the loss of compound by LC–MS/MS. Two incubations per compound per species. For further details regarding working concentrations, volumes, and final concentrations at incubation, refer to the supplementary section (Table S6). […]
Conc. of W orki ng Vol ume i n Fi nal conc. At
sol uti on assay incubation
577 m g / m L520 µ L0. 5 m g / m L […]
NADPH i n buffe r 7. 5 m M 80 µ L 1 m M

Plasma stability, human = format: in vitro ADME; details: 1 μM, 37 °C
Description: The reaction was started by the addition of the compound to blank plasma in LC vials after preincubation at 37 °C. The initial compound concentration was 1 μM. The reaction was stopped by the addition of ACN at seven time points (0, 0.5, 1, 2, 4, 6, and 23 h). Time point 0 h was about 15–20 s after spiking the plasma with the compound. The samples were centrifuged and the supernatant diluted and analyzed by LC–MS/MS to determine the % of compound remaining relative to the initial concentration of compound.

PmSiaT = target: T1, PmSiaT (Proteus mirabilis, UniProt B4EZY7); assay: nanoDSF thermal shift assay, PmSiaT; format: binding; details: for Average 1 / Average 2 / Average 3 / Replicate 1 / Replicate 2 / Replicate 3: PmSiaT Tm; for Average 1: average of experiment 1; for Average 2: average of experiment 2; for Average 3: average of experiment 3; for Replicate 1: experiment 1, second capillary; for Replicate 1 / Replicate 2 / Replicate 3 / Tm 1 / Tm2 / Tm 3 / Tm average overall / ΔTm at 1250 µM: 1.25 mM; for Replicate 2: experiment 2, second capillary; for Replicate 3: experiment 3, second capillary; for Tm 1: experiment 1, first capillary; for Tm2: experiment 2, first capillary; for Tm 3: experiment 3, first capillary; for Tm average overall / ΔTm at 1250 µM: three experiments; for ΔTm at 1250 µM: vs Neu5Ac, read-out: ΔTm average overall
T1 construct: made in house
T1 sequence (B4EZY7 1-496): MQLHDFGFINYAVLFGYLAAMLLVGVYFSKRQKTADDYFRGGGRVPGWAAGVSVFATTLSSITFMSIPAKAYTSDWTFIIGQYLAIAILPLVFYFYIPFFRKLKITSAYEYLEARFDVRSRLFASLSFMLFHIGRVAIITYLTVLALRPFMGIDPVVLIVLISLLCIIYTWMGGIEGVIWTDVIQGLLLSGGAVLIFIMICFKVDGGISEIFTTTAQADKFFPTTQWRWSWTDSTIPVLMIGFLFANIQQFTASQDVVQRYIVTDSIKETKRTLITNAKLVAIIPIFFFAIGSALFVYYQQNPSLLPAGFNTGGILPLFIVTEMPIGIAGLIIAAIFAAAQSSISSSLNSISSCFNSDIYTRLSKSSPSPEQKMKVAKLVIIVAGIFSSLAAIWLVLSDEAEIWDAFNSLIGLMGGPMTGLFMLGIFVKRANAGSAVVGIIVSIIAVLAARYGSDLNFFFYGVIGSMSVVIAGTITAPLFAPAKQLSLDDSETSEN
Procedure, shortened: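 Protein at 2 μM in PBS with 0.0174% (w/v) DDM and ligand at 1.25 mM were heated from 25 to 95 °C at 1 °C/min, with 330/350 nm fluorescence ratio and its first derivative giving Tm. ΔTm is relative to the Neu5Ac Tm, averaged over 3 experiments with 2 capillaries each.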

[3] = PmSiaT, experiment 1, vs Neu5Ac, read-out: ΔTm 1
[4] = PmSiaT, experiment 2, vs Neu5Ac, read-out: ΔTm 2
[5] = PmSiaT, experiment 3, vs Neu5Ac, read-out: ΔTm 3
[6] = nanoDSF, relative to Neu5Ac, ligand 1.25 mM, <−2.0 °C nonbinder, read-out: PmSiaT ΔTm

Row | Compound | ability to catabolize compound (growth vs MM only) (P. mirabilis HI4320) | fraction unbound at 4 h, 5 μM [1] | Metabolic stability in mouse microsomes, Exp. 1 [2] | Metabolic stability in mouse microsomes, Exp. 2 [2] | microsomal CLint at 1 µM [2] | In vitro plasma stability (% compound remaining after 23 h) (Plasma stability, human) | Average 1 (PmSiaT) | Average 2 (PmSiaT) | Average 3 (PmSiaT) | Replicate 1 (PmSiaT) | Replicate 2 (PmSiaT) | Replicate 3 (PmSiaT) | Tm 1 (PmSiaT; PmSiaT) | ΔTm (PmSiaT; [3]) | Tm2 (PmSiaT; PmSiaT) | ΔTm (PmSiaT; [4]) | Tm 3 (PmSiaT; PmSiaT) | Tm average overall (PmSiaT; PmSiaT) | ΔTm at 1250 µM (PmSiaT; PmSiaT) | ΔTm (PmSiaT; [6]) | also measured
1 | CC(=O)NC1C(OCc2cc(F)cc(F)c2)CC(O)(C(=O)O)OC1C(O)C(O)CO (stereo not shown) [Compound 3e] | no ability to catabolize | 0.63 | < 10 µL/min/mg protein | < 10 µL/min/mg protein | < 10 µL/min/mg | 100% | 56.7 °C | 55.2 °C | 56.1 °C | 56.8 °C | 55.2 °C | 56.1 °C | 56.7 °C | 7.7 °C | 55.2 °C | 6 °C | 56.0 °C | 56.0 °C | 6.8 °C | 6.8 ± 0.9 °C | ΔTm (PmSiaT; [5]): 6.8 °C
2 | CC(=O)NC1C(OCc2ccccc2)CC(O)(C(=O)O)OC1C(O)C(O)CO (stereo not shown) [Compound 3a] |  | 0.63 | < 10 µL/min/mg protein | < 10 µL/min/mg protein | < 10 µL/min/mg | 100% | 54.6 °C | 53.8 °C | 54.1 °C | 54.6 °C | 53.9 °C | 54.2 °C | 54.5 °C | 5.6 °C | 53.7 °C | 4.6 °C | 54.0 °C | 54.2 °C | 5 °C | 4.8 ± 0.5 °C | 
3 | CC(=O)NC1C(OCc2cc(Br)cc(Br)c2)CC(O)(C(=O)O)OC1C(O)C(O)CO (stereo not shown) [Compound 3f] | no ability to catabolize | 0.23 | < 10 µL/min/mg protein | < 10 µL/min/mg protein | < 10 µL/min/mg | 91% |  | 62.8 °C | 63.7 °C | 64.2 °C | 63.0 °C | 63.6 °C | 63.9 °C | 15 °C | 62.6 °C | 13.6 °C | 63.8 °C | 63.5 °C |  | 14.3 °C | 
4 | CC(=O)N[C@H]1[C@H]([C@H](O)[C@H](O)CO)OC(O)(C(=O)O)C[C@@H]1O (stereo partly shown) [Neu5Ac, 5-N-acetyl neuraminic acid, reference compound] |  |  |  |  |  |  | 49.0 °C | 49.2 °C | 49.3 °C | 48.8 °C | 49.2 °C | 49.3 °C | 49.2 °C | 0 °C | 49.1 °C | 0 °C | 49.3 °C | 49.1 °C | 0 °C | 0 °C | ΔTm (PmSiaT; [5]): 0 °C
